Results as given in patent US20240024403A1, “Compositions and Methods for Managing Weight” (Unigen, Inc., priority 2012, published 2024).

Test: High fat diet induced obesity (DIO) mouse model
Type: in vivo, C57CL/6J mice
Set-up: Epididymal Fat weight / Retroperitoneal Fat weight / Total Fat (sum of the three fat deposits) / Retroperitoneal Fat / Total Fat / Epididymal Fat, absolute weight / Retroperitoneal Fat, absolute weight: unit not given here
Conditions: DIO mice; for Weight (total body weight) / Total Weight: in g (unit assumed); for Food Efficiency Ratio (FER): FER = body weight gain (g/day)/food intake (g/day)
Method: C57CL/6J mice aged 4-6 weeks (Korea Research Institute of Bioscience & Biotechnology, Ohchang, Korea) were housed in Polycarbonate cages (five mice per cage) in a room with a 12 hr:12 hr light-dark cycle and an ambient temperature of 24° C. All the mice were fed a commercial chow diet for 1 week after arrival in the animal facility. Mice were then divided into normal and obesity groups and fed with normal diet (ND) and high fat diets (HFD) respectively. The HFD group was divided into multiple treatment groups: a high fat diet vehicle group (HFD), an orlistat (purchased as OTC drug Alli®) positive control treatment group (ORI, 40 mg/kg of animal weight, 2 times/day) and optionally a sibutramine positive control treatment group (10 mg/kg, 1 time/day). The HFD contained 340 g of fat/kg of HFD (310 g lard plus 30 g soybean oil; Harlan Laboratories, USA). The HFD was formulated to provide 60% of the total energy generated by the diet from fat by replacing carbohydrate energy with lard and soybean oil, whereas the normal diet (ND) group was fed a diet providing only 18% of the total diet energy from fat(Harlan Laboratories, USA).
Body weight was measured once each week and feed intake was measured twice per week. At the end of the experimental period, following a 12 hr. fasting period, the animals were anesthetized with ether, and blood was drawn from the abdominal vein. Liver and kidney and adipose tissues (epididymal, retroperitoneal, perirenal adipose tissues) were removed from each animal, rinsed with physiological saline, and weighed. Serum concentrations of glucose, total cholesterol, triglycerides, and LDL-cholesterol were determined using automatic analyzer (INTEGRA 400, Roche, Germany). Statistical significance of test results was measured using the Student's t-test.

[1] = oral, week 3, ORI 40 mg/kg, G1 700 mg/kg (Morus:Rosemary 2:5)
[2] = oral, week 3, ORI 40 mg/kg, G1 1200 mg/kg (Morus:Yerba Mate 1:5)
[3] = oral, week 4, ORI 40 mg/kg, G1 700 mg/kg (Morus:Rosemary 2:5)
[4] = oral, week 4, ORI 40 mg/kg, G1 1200 mg/kg (Morus:Yerba Mate 1:5)
[5] = oral, week 5, ORI 40 mg/kg, G1 700 mg/kg (Morus:Rosemary 2:5)
[6] = oral, week 5, ORI 40 mg/kg, G1 1200 mg/kg (Morus:Yerba Mate 1:5)
[7] = oral, week 6, ORI 40 mg/kg, G1 700 mg/kg (Morus:Rosemary 2:5)
[8] = oral, week 6, ORI 40 mg/kg, G1 1200 mg/kg (Morus:Yerba Mate 1:5)
[9] = oral, week 7, ORI 40 mg/kg, G1 700 mg/kg (Morus:Rosemary 2:5)
[10] = oral, week 7, ORI 40 mg/kg, G1 1200 mg/kg (Morus:Yerba Mate 1:5)
[11] = seven weeks, ORI 40 mg/kg, G1 300 mg/kg (Morus:Magnolia 2:1)
[12] = seven weeks, ORI 40 mg/kg, G1 1200 mg/kg (Morus:Yerba Mate 1:5)
[13] = week 1, G1-G4 1000 mg/kg oral gavage two times per day
[14] = week 2, G1-G4 1000 mg/kg oral gavage two times per day
[15] = week 3, G1-G4 1000 mg/kg oral gavage two times per day
[16] = week 4, G1-G4 1000 mg/kg oral gavage two times per day
[17] = week 5, G1-G4 1000 mg/kg oral gavage two times per day
[18] = week 6, G1-G4 1000 mg/kg oral gavage two times per day
[19] = week 7, G1-G4 1000 mg/kg oral gavage two times per day
[20] = G1-G4 1000 mg/kg oral gavage two times per day

CCCCCCCCCCC[C@@H](C[C@@H]1OC(=O)[C@H]1CCCCCC)OC(=O)[C@H](CC(C)C)NC=O [ORI, orlistat]
Body Weight Gain [1]: −5.91 | Weight (total body weight) [1]: 36.48 | Weight Gain [2]: −3.34 | Total Weight [2]: 35.12 | Body Weight Gain (oral, week 4, ORI 40 mg/kg, G1 300 mg/kg (Morus:Magnolia 2:1)): −2.61 | Body Weight Gain [3]: −3.82 | Weight (total body weight) [3]: 38.57 | Weight Gain [4]: −2.61 | Total Weight [4]: 35.84 | Body Weight Gain (oral, week 5, ORI 40 mg/kg, G1 300 mg/kg (Morus:Magnolia 2:1)): −2.04 | Body Weight Gain [5]: −2.33 | Weight (total body weight) [5]: 40.07 | Weight Gain [6]: −2.04 | Total Weight [6]: 36.41 | Body Weight Gain (oral, week 6, ORI 40 mg/kg, G1 300 mg/kg (Morus:Magnolia 2:1)): −1.65 | Body Weight Gain [7]: −1.44 | Weight (total body weight) [7]: 40.95 | Weight Gain [8]: −1.65 | Total Weight [8]: 36.80 | Body Weight Gain (oral, week 7, ORI 40 mg/kg, G1 300 mg/kg (Morus:Magnolia 2:1)): −0.07 | Body Weight Gain [9]: 0.60 | Weight (total body weight) [9]: 42.99 | Weight Gain [10]: −0.07 | Total Weight [10]: 38.38 | Absolute Liver Weight [11]: 1.05 g | Body Weight Gain [11]: -0.002 g/day | Epididymal Fat weight [11]: 1.92 | Food Intake [11]: 3.961 g/day | Perirenal Fat weight [11]: 0.21 | Retroperitoneal Fat weight [11]: 0.55 | Total Fat (sum of the three fat deposits) [11]: 2.68 | Food Efficiency Ratio (FER) (seven weeks, ORI 40 mg/kg, G1 300 mg/kg): 0.000 | Food Intake [12]: 3.961 g/day | Retroperitoneal Fat [12]: 0.55 | Weight Gain [12]: -0.002 g/day | Food Efficiency Ratio (FER) (seven weeks, ORI 40 mg/kg, G1 1200 mg/kg): 0.000 | Animal Body Weight, week 0 (week 0 (baseline), G1-G4 1000 mg/kg oral gavage two times per day): 41.44 gram | Animal Body Weight, week 1 [13]: 40.17 gram | Weight Gain, week 1 [13]: −3.97 gram | Animal Body Weight, week 2 [14]: 36.20 gram | Weight Gain, week 2 [14]: −5.37 gram | Animal Body Weight, week 3 [15]: 34.80 gram | Weight Gain, week 3 [15]: −4.08 gram | Animal Body Weight, week 4 [16]: 36.09 gram | Weight Gain, week 4 [16]: −3.11 gram | Animal Body Weight, week 5 [17]: 37.06 gram | Weight Gain, week 5 [17]: −1.26 gram | Animal Body Weight, week 6 [18]: 38.91 gram | Weight Gain, week 6 [18]: 0.05 gram | Animal Body Weight, week 7 [19]: 40.22 gram | Weight Gain, week 7 [19]: 0.72 gram | Weight Gain 2-week (2-week, Compositions 1, 2 1300 mg/kg/day, 3, 9 1700 mg/kg/day, orlistat 40 mg/kg 2 times/day, sibutramine 10 mg/kg 1 time/day): −5.07 | Average Feed Intake 2-week (2-week, doses as in Example 76): 2.79 | Food Efficiency Ratio (FER) 2 weeks (2 weeks, Mean, Weight Gain (g/day)/Feed Intake (g/day)): −0.223 | Weight Gain 7-week (7-week, Compositions 1, 2 1300 mg/kg/day, 3, 9 1700 mg/kg/day, orlistat 40 mg/kg 2 times/day, sibutramine 10 mg/kg 1 time/day): 0.56 | Average Feed Intake 7-week (7-week, doses as in Example 76): 3.09 | Food Efficiency Ratio (FER) 7 weeks (7 weeks, Mean, Weight Gain (g/day)/Feed Intake (g/day)): 0.005 | FER (Food efficiency ratio) (Body weight gain (g/day)/Food intake (g/day), G1 = 800 mg/kg orally twice a day): −0.001 | FER (Food efficiency ratio) (Body weight gain (g/day)/Food intake (g/day), G1 = 1,100 mg/kg orally twice a day): −0.001 | FER (Food efficiency ratio) (Body weight gain (g/day)/Food intake (g/day), G1 = 1,200 mg/kg orally twice a day): −0.001 | FER (Food efficiency ratio) (FER = Weight Gain (g/day)/Food intake (g/day)): 0.006 | Food Efficiency Ratio (FER) (SIB 10 mg/kg, ORI 40 mg/kg, Mutamba extract 32 (G1) 1000 mg/kg, mean): 0.013 | Food Efficiency Ratio (FER) (SIB 10 mg/kg, ORI 40 mg/kg, Mutamba extract 33-2 G1 1000 mg/kg, mean): 0.034 | Absolute Organ Weight, PeriRenal Fat [20]: 0.388 g | Absolute Organ Weight, Retroperitoneal Fat [20]: 0.567 g
